Laboratory results reported in patent publication US20260325533A1, “CDK INHIBITOR COMPOUNDS” (ALEKSIA THERAPEUTICS, INC., priority 2023, published 2026).
Where two headings read alike, the source gives them in different places. One block for each compound: values may come before it.

Key:
Format in all cases: biochemical
CDK6/CCND1 = CDK6/CCND1 (Homo sapiens, UniProt Q00534); assay: CDK6 homogeneous time-resolved fluorescence (HTRF) kinase assay; details: CDK6/CCND
Method in brief: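 Enzyme pre-incubated 20 min at 23 °C with compound, then reacted 60 min at 23 °C with 1 mM ATP and 50 nM ULight-4E-BP1 (Thr37/46) peptide; 1 nM enzyme, 1% DMSO. EDTA-stopped, Eu-anti-phospho antibody TR-FRET read (665 nm or 665/615 ratio); 11-point half-log titration from 10 μM gave IC50.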

CDK2/CCNE1 = CDK2/CCNE1 (Homo sapiens, UniProt P24941); assay: CDK2 homogeneous time-resolved fluorescence (HTRF) kinase assay; details: CDK2/CCNE
Method in brief: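 CDK2/CCNE1 (3 nM) preincubated 20 min at 23 °C with compound, then reacted 60 min at 23 °C with 1 mM ATP and 50 nM ULight-4E-BP1 (Thr37/46) peptide. Stopped with EDTA, phospho-peptide detected by Eu-anti-phospho antibody (665 nm or 665/615 ratio). IC50 from 11-point half-log titrations typically starting at 10 μM.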

CDK1/CCNB1 = CDK1/CCNB1 (Homo sapiens, UniProt P06493); assay: CDK1 homogeneous time-resolved fluorescence (HTRF) kinase assay; details: CDK1/CCNB
Method in brief: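 Compounds, titrated 11 points in half-log steps typically from 10 μM, were incubated with enzyme for 20 min before ATP (1 mM) and ULight-labelled eIF4E-binding protein 1 peptide (50 nM) started a 60-min reaction at 23 °C. Phosphopeptide was detected by europium-antibody TR-FRET and IC50 values were derived.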

CDK4/CCND3 = CDK4/CCND3 (Homo sapiens, UniProt P11802); assay: CDK4 homogeneous time-resolved fluorescence (HTRF) kinase assay; details: CDK4/CCND
Method in brief: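 CDK4/CCND3 at 1.5 nM was preincubated with compound for 20 min at 23 °C, then reacted for 60 min with 1 mM ATP and 50 nM ULight-4E-BP1 (Thr37/46) peptide. The reaction was stopped with EDTA, and phosphorylation was read by HTRF with a Eu-anti-phospho antibody. IC50 values came from 11-point half-log titrations, typically from 10 μM.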

[1] = x = IC50 >250 nM, read-out: CDK6/CCND IC50 (>250 nM column)
[2] = x = IC50 <25 nM, read-out: CDK2/CCNE IC50 (<25 nM)
[3] = x = IC50 >250 nM, read-out: CDK1/CCNB IC50 (>250 nM column)
[4] = x = IC50 25-250 nM, read-out: CDK4/CCND IC50 (25-250 nM)
[5] = x = IC50 >250 nM, read-out: CDK4/CCND IC50 (>250 nM column)
[6] = x = IC50 25-250 nM, read-out: CDK2/CCNE IC50 (25-250 nM)
[7] = x = IC50 25-250 nM, read-out: CDK1/CCNB IC50 (25-250 nM)
[8] = x = IC50 25-250 nM, read-out: CDK6/CCND IC50 (25-250 nM)
[9] = x = IC50 <25 nM, read-out: CDK4/CCND IC50 (<25 nM)
[10] = >250 nM, 1 mM ATP, read-out: CDK6/CCND IC50, >250 nM
[11] = 25-250 nM, read-out: CDK2/CCNE IC50, 25-250 nM
[12] = >250 nM, read-out: CDK1/CCNB IC50 >250 nM
[13] = >250 nM, read-out: CDK4/CCND IC50, >250 nM
[14] = <25 nM, read-out: CDK2/CCNE IC50, <25 nM
[15] = 25-250 nM, read-out: CDK4/CCND IC50, 25-250 nM
[16] = 25-250 nM, 1 mM ATP, read-out: CDK6/CCND IC50, 25-250 nM

Sequence of CDK1/CCNB1 (P06493 whole entry): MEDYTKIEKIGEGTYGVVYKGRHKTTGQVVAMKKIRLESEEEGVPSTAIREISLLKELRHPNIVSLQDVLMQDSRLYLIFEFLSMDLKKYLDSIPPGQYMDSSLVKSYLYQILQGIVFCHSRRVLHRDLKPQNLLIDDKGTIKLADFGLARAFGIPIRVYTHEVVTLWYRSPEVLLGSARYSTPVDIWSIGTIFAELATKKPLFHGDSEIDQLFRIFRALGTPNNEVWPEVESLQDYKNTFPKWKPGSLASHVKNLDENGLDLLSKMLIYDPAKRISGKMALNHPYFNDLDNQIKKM
Sequence of CDK1/CCNB1 (P14635 whole entry partner): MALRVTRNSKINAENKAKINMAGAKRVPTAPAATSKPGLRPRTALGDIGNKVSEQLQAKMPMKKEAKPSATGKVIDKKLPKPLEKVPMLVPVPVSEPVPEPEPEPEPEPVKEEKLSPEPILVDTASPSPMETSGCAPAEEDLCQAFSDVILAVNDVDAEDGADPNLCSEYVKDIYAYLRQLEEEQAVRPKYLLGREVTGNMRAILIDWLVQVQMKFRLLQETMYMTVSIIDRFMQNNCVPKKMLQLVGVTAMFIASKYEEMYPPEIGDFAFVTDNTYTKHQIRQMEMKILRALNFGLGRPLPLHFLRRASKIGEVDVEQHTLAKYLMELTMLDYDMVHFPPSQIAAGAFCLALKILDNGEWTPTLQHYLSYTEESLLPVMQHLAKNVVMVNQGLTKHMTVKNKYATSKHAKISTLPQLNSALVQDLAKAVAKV
Sequence of CDK4/CCND3 (P11802 whole entry): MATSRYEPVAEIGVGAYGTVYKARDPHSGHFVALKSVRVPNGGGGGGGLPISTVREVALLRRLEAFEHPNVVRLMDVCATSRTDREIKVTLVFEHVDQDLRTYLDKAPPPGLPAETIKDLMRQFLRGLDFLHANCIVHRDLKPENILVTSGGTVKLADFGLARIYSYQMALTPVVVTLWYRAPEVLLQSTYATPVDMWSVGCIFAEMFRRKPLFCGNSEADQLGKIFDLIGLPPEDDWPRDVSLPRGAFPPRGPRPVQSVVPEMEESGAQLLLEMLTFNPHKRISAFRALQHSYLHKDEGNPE
Sequence of CDK4/CCND3 (P30281 whole entry partner): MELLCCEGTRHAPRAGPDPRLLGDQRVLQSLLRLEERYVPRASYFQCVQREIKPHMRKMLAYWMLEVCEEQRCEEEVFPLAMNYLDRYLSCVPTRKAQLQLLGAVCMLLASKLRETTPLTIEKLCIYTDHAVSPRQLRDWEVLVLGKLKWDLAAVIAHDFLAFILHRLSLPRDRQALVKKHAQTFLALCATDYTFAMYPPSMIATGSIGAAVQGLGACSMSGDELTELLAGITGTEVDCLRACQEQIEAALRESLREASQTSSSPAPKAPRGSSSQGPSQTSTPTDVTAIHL
Sequence of CDK6/CCND1 (Q00534 whole entry): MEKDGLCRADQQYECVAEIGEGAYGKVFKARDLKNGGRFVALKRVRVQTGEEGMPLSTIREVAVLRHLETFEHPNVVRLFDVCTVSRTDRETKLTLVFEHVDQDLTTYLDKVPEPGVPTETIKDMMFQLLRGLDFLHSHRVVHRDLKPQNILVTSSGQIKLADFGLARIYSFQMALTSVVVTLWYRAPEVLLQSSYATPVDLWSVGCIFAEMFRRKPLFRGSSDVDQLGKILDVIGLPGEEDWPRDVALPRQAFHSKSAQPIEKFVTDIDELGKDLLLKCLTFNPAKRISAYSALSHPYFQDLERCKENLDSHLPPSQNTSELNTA
Sequence of CDK6/CCND1 (P24385 whole entry partner): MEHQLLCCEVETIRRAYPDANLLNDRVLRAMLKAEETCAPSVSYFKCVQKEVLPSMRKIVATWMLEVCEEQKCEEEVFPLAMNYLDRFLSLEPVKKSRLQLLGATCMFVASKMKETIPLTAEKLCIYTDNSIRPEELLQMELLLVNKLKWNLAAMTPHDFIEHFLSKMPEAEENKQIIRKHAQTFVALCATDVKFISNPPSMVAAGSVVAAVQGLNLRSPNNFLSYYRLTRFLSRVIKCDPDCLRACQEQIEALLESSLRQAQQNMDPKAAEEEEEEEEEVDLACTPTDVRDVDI

Compound: CCC1(CC)C(=O)Nc2cc(C#Cc3nccc4cnc(Nc5ccc(S(=N)(=O)C6CCC6)cc5)cc34)ccc21 (single isomer, unassigned) [Ex 412, 6-((7-((4-(cyclobutanesulfonimidoyl)phenyl)amino)-2,6-naphthyridin-1-yl)ethynyl)-3,3-diethylindolin-2-one]
- IC50 (CDK6/CCND1; [1]): > 0.25 µM
- IC50 (CDK2/CCNE1; [2]): < 0.025 µM
- IC50 (CDK1/CCNB1; [3]): > 0.25 µM
- IC50 (CDK4/CCND3; [4]): 0.025 to 0.25 µM

Compound: CCC1(CC)C(=O)Nc2cc(C#Cc3nccc4cnc(Nc5ccc(S(=N)(=O)C(C)C)cc5)cc34)ccc21 (single isomer, unassigned) [Ex 414, 3,3-diethyl-6-((7-((4-(propan-2-ylsulfonimidoyl)phenyl)amino)-2,6-naphthyridin-1-yl)ethynyl)indolin-2-one]
- IC50 (CDK6/CCND1; [1]): > 0.25 µM
- IC50 (CDK2/CCNE1; [2]): < 0.025 µM
- IC50 (CDK1/CCNB1; [3]): > 0.25 µM
- IC50 (CDK4/CCND3; [5]): > 0.25 µM

Compound: N=S(=O)(c1ccc(Nc2cc3c(C#Cc4cccnc4N)nccc3cn2)cc1)C1CC1 (single isomer, unassigned) [Ex 417, (4-((5-((2-aminopyridin-3-yl)ethynyl)-2,6-naphthyridin-3-yl)amino)phenyl)(cyclopropyl)(imino)-l6-sulfanone]
- IC50 (CDK6/CCND1; [1]): > 0.25 µM
- IC50 (CDK2/CCNE1; [6]): 0.025 to 0.25 µM
- IC50 (CDK1/CCNB1; [3]): > 0.25 µM
- IC50 (CDK4/CCND3; [5]): > 0.25 µM

Compound: CCC1(CC)C(=O)Nc2cc(C#Cc3nccc4cnc(Nc5ccc(S(C)(=N)=O)cc5)cc34)ccc21 (single isomer, unassigned) [Ex 426, 3,3-diethyl-6-((7-((4-(S-methylsulfonimidoyl)phenyl)amino)-2,6-naphthyridin-1-yl)ethynyl)indolin-2-one]
- IC50 (CDK6/CCND1; [1]): > 0.25 µM
- IC50 (CDK2/CCNE1; [2]): < 0.025 µM
- IC50 (CDK1/CCNB1; [7]): 0.025 to 0.25 µM
- IC50 (CDK4/CCND3; [5]): > 0.25 µM

Compound: CC1(C)C(=O)Nc2cc(C#Cc3nccc4cnc(Nc5ccc(S(=N)(=O)C6CC6)cc5)cc34)ccc21 (single isomer, unassigned) [Ex 437, 6-((7-((4-(cyclopropanesulfonimidoyl)phenyl)amino)-2,6-naphthyridin-1-yl)ethynyl)-3,3-dimethylindolin-2-one]
- IC50 (CDK6/CCND1; [8]): 0.025 to 0.25 µM
- IC50 (CDK2/CCNE1; [2]): < 0.025 µM
- IC50 (CDK1/CCNB1; [7]): 0.025 to 0.25 µM
- IC50 (CDK4/CCND3; [9]): < 0.025 µM

Compound: CC(C)S(=N)(=O)c1ccc(Nc2cc3c(C#Cc4ccc5c(c4)NC(=O)C5(C)C)nccc3cn2)cc1 (single isomer, unassigned) [Ex 455, 3,3-dimethyl-6-((7-((4-(propan-2-ylsulfonimidoyl)phenyl)amino)-2,6-naphthyridin-1-yl)ethynyl)indolin-2-one]
- IC50 (CDK6/CCND1; [8]): 0.025 to 0.25 µM
- IC50 (CDK2/CCNE1; [2]): < 0.025 µM
- IC50 (CDK1/CCNB1; [7]): 0.025 to 0.25 µM
- IC50 (CDK4/CCND3; [4]): 0.025 to 0.25 µM
- IC50 (CDK4/CCND3; [9]): < 0.025 µM

Compound: CC(O)CN1CCC(C#Cc2nccc3cnc(Nc4ccc(S(C)(=O)=O)cc4)cc23)CC1 (single isomer, unassigned) [Ex 607, 1-(4-((7-((4-(methylsulfonyl)phenyl)amino)-2,6-naphthyridin-1-yl)ethynyl)piperidin-1-yl)propan-2-ol]
- IC50 (CDK6/CCND1; [8]): 0.025 to 0.25 µM
- IC50 (CDK2/CCNE1; [2]): < 0.025 µM
- IC50 (CDK1/CCNB1; [3]): > 0.25 µM
- IC50 (CDK4/CCND3; [5]): > 0.25 µM

Compound: CC1(C)C(=O)Nc2cc(C#Cc3nccc4cnc(Nc5ccc(S(=N)(=O)NC6CCC6)cc5)cc34)ccc21 (single isomer, unassigned) [Ex 688, N-cyclobutyl-4-((5-((3,3-dimethyl-2-oxoindolin-6-yl)ethynyl)-2,6-naphthyridin-3-yl)amino)benzenesulfonimidamide]
- IC50 (CDK6/CCND1; [16]): 0.025 to 0.25 µM
- IC50 (CDK2/CCNE1; [14]): < 0.025 µM
- IC50 (CDK1/CCNB1; [12]): > 0.25 µM
- IC50 (CDK4/CCND3; [15]): 0.025 to 0.25 µM

The remaining lines, values ahead:

- IC50 (CDK6/CCND1; [1]): > 0.25 µM
- IC50 (CDK2/CCNE1; [2]): < 0.025 µM
- IC50 (CDK1/CCNB1; [7]): 0.025 to 0.25 µM
- IC50 (CDK4/CCND3; [4]): 0.025 to 0.25 µM
Compound: CC1(C)C(=O)Nc2cc(C#Cc3nccc4cnc(Nc5ccc(S(C)(=N)=O)cc5)cc34)ccc21 (single isomer, unassigned) [Ex 451, 3,3-dimethyl-6-((7-((4-(S-methylsulfonimidoyl)phenyl)amino)-2,6-naphthyridin-1-yl)ethynyl)indolin-2-one]

- IC50 (CDK6/CCND1; [8]): 0.025 to 0.25 µM
- IC50 (CDK2/CCNE1; [2]): < 0.025 µM
- IC50 (CDK1/CCNB1; [7]): 0.025 to 0.25 µM
- IC50 (CDK4/CCND3; [4]): 0.025 to 0.25 µM
Compound: CCS(=N)(=O)c1ccc(Nc2cc3c(C#Cc4ccc5c(c4)NC(=O)C5(C)C)nccc3cn2)cc1 (single isomer, unassigned) [Ex 462, 6-((7-((4-(ethylsulfonimidoyl)phenyl)amino)-2,6-naphthyridin-1-yl)ethynyl)-3,3-dimethylindolin-2-one]

- IC50 (CDK6/CCND1; [1]): > 0.25 µM
- IC50 (CDK2/CCNE1; [6]): 0.025 to 0.25 µM
- IC50 (CDK1/CCNB1; [3]): > 0.25 µM
- IC50 (CDK4/CCND3; [5]): > 0.25 µM
Compound: CCS(=N)(=O)c1ccc(Nc2cc3c(C#Cc4cccnc4N)nccc3cn2)cc1 (single isomer, unassigned) [Ex 474, (4-((5-((2-aminopyridin-3-yl)ethynyl)-2,6-naphthyridin-3-yl)amino)phenyl)(ethyl)(imino)-l6-sulfanone]

- IC50 (CDK6/CCND1; [1]): > 0.25 µM
- IC50 (CDK2/CCNE1; [6]): 0.025 to 0.25 µM
- IC50 (CDK1/CCNB1; [3]): > 0.25 µM
- IC50 (CDK4/CCND3; [5]): > 0.25 µM
Compound: CS(=N)(=O)c1ccc(Nc2cc3c(C#Cc4cccnc4N)nccc3cn2)cc1 (single isomer, unassigned) [Ex 480, (4-((5-((2-aminopyridin-3-yl)ethynyl)-2,6-naphthyridin-3-yl)amino)phenyl)(imino)(methyl)-l6-sulfanone]

- IC50 (CDK6/CCND1; [8]): 0.025 to 0.25 µM
- IC50 (CDK2/CCNE1; [2]): < 0.025 µM
- IC50 (CDK1/CCNB1; [7]): 0.025 to 0.25 µM
- IC50 (CDK4/CCND3; [4]): 0.025 to 0.25 µM
Compound: Cc1c(-c2nccc3cnc(Nc4ccc(S(=N)(N)=O)cc4)cc23)ccc2c1cnn2CC(O)(C(F)(F)F)C(F)(F)F (single isomer, unassigned) [Ex 679, 4-((5-(4-methyl-1-(3,3,3-trifluoro-2-hydroxy-2-(trifluoromethyl)propyl)-1H-indazol-5-yl)-2,6-naphthyridin-3-yl)amino)benzenesulfonimidamide]

- IC50 (CDK6/CCND1; [10]): > 0.25 µM
- IC50 (CDK2/CCNE1; [11]): 0.025 to 0.25 µM
- IC50 (CDK1/CCNB1; [12]): > 0.25 µM
- IC50 (CDK4/CCND3; [13]): > 0.25 µM
Compound: Cc1c(-c2nccc3cnc(Nc4ccc(S(=N)(=O)NC5CCC5)cc4)cc23)ccc2c1cnn2CC(O)(C(F)(F)F)C(F)(F)F (single isomer, unassigned) [Ex 680, N-cyclobutyl-4-((5-(4-methyl-1-(3,3,3-trifluoro-2-hydroxy-2-(trifluoromethyl)propyl)-1H-indazol-5-yl)-2,6-naphthyridin-3-yl)amino)benzenesulfonimidamide]

- IC50 (CDK6/CCND1; [10]): > 0.25 µM
- IC50 (CDK2/CCNE1; [14]): < 0.025 µM
- IC50 (CDK1/CCNB1; [12]): > 0.25 µM
- IC50 (CDK4/CCND3; [15]): 0.025 to 0.25 µM
Compound: Cc1c(-c2nccc3cnc(Nc4ccc(S(=N)(=O)NC5CC5)cc4)cc23)ccc2c1cnn2CC(O)(C(F)(F)F)C(F)(F)F (single isomer, unassigned) [Ex 681, N-cyclopropyl-4-((5-(4-methyl-1-(3,3,3-trifluoro-2-hydroxy-2-(trifluoromethyl)propyl)-1H-indazol-5-yl)-2,6-naphthyridin-3-yl)amino)benzenesulfonimidamide]

- IC50 (CDK6/CCND1; [16]): 0.025 to 0.25 µM
- IC50 (CDK2/CCNE1; [14]): < 0.025 µM
- IC50 (CDK1/CCNB1; [12]): > 0.25 µM
- IC50 (CDK4/CCND3; [15]): 0.025 to 0.25 µM
Compound: CNS(=N)(=O)c1ccc(Nc2cc3c(-c4ccc5c(cnn5CC(O)(C(F)(F)F)C(F)(F)F)c4C)nccc3cn2)cc1 (single isomer, unassigned) [Ex 683, N-methyl-4-((5-(4-methyl-1-(3,3,3-trifluoro-2-hydroxy-2-(trifluoromethyl)propyl)-1H-indazol-5-yl)-2,6-naphthyridin-3-yl)amino)benzenesulfonimidamide]

- IC50 (CDK6/CCND1; [10]): > 0.25 µM
- IC50 (CDK2/CCNE1; [11]): 0.025 to 0.25 µM
- IC50 (CDK1/CCNB1; [12]): > 0.25 µM
- IC50 (CDK4/CCND3; [13]): > 0.25 µM
Compound: Cc1c(-c2nccc3cnc(Nc4ccc(S(=N)(=O)Nc5ccccc5)cc4)cc23)ccc2c1cnn2CC(O)(C(F)(F)F)C(F)(F)F (single isomer, unassigned) [Ex 685, 4-((5-(4-methyl-1-(3,3,3-trifluoro-2-hydroxy-2-(trifluoromethyl)propyl)-1H-indazol-5-yl)-2,6-naphthyridin-3-yl)amino)-N-phenylbenzenesulfonimidamide]
